Reference: patent US12692238B2, “Substituted pyridazinone herbicides” (FMC CORPORATION, priority 2020, dated 2026)

Key:
Type in all cases: in vivo
[1] = system: oat, wild (wild oat, Avena fatua); test: Test A postemergence, oat, wild; conditions: 10 days
Source text: (§1) Seeds of plant species selected from barnyardgrass (Echinochloa crus-galli), blackgrass (Alopecurus myosuroides), corn (Zea mays), foxtail, giant (giant foxtail, Setaria faberi), foxtail, green (green foxtail, Setaria viridis), goosegrass (Eleusine indica), kochia (Bassia scoparia), oat, wild (wild oat, Avena fatua), palmer amaranth (pigweed, palmer, Amaranthus palmeri), redroot pigweed (Amaranthus retroflexus), ragweed (common ragweed, Ambrosia artemisiifolia), ryegrass, Italian (Italian ryegrass, Lolium multiflorum), and soybean (Glycine max) were planted into a blend of loam soil and sand and treated preemergence with a directed soil spray using test chemicals formulated in a non-phytotoxic solvent mixture which included a surfactant.
(§2) At the same time, plants selected from these crop and weed species and also wheat (Triticum aestivum), galium (catchweed bedstraw, Galium aparine) and horseweed (Erigeron canadensis) were planted in pots containing the same blend of loam soil and sand and treated with postemergence applications of test chemicals formulated in the same manner. Plants ranged in height from 2 to 10 cm and were in the one- to two-leaf stage for the postemergence treatment. Treated plants and untreated controls were maintained in a greenhouse for 10 days, after which time all treated plants were compared to untreated controls and visually evaluated for injury. Plant response ratings, summarized in Table A, are based on a 0 to 100 scale where 0 is no effect and 100 is complete control. A dash (-) response means no test result.

[2] = system: corn (Zea mays); test: Test A postemergence, corn; conditions: Zea mays, post-emergence, 240 h, 10 days; for Corn plant response rating (crop injury, 0 = no effect, 100 = complete kill) at 31 g/ha: 31 g ai/ha; for Corn plant response rating (crop injury, 0 = no effect, 100 = complete kill) at 125 g/ha: 125 g ai/ha
How it was run: (§3)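 Test chemicals, formulated in a non-phytotoxic solvent mixture with surfactant, are applied either as a directed preemergence soil spray or postemergence to seedlings at the one- to two-leaf stage. Injury is scored visually after 10 days, 0 = no effect to 100 = complete control.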

[3] = system: soybean (Glycine max); test: Test A preemergence, soybean; conditions: 0 to 100 scale, 10 days
Source text: as §1, §2

[4] = system: palmer amaranth (pigweed, palmer, Amaranthus palmeri); test: Test A postemergence, palmer amaranth; conditions: 10 days
Source text: as §1, §2

[5] = system: blackgrass (Alopecurus myosuroides); test: Test A preemergence, blackgrass; conditions: 0 to 100 scale, 10 days
Source text: as §1, §2

[6] = system: soybean (Glycine max); test: Test A postemergence, soybean; conditions: 10 days
Source text: as §1, §2

[7] = system: ryegrass, Italian (Italian ryegrass, Lolium multiflorum); test: Test A preemergence, ryegrass, Italian; conditions: Lolium multiflorum, pre-emergence, 240 h, 0 to 100 scale, 10 days, read-out: Plant response rating, Ryegrass, Italian; for pest or weed control at 31 g/ha: 31 g ai/ha; for pest or weed control at 125 g/ha: 125 g ai/ha
How it was run: as §3

[8] = system: horseweed (Erigeron canadensis); test: Test A postemergence, horseweed; conditions: 10 days
Source text: as §1, §2

[9] = system: goosegrass (Eleusine indica); test: Test A preemergence, goosegrass; conditions: 0 to 100 scale, 10 days
Source text: as §1, §2

[10] = system: wheat (Triticum aestivum); test: Test A preemergence, wheat; conditions: 125 g ai/ha, 0 to 100 scale, 10 days
[11] = system: sedge, umbrella (small-flower umbrella sedge, Cyperus difformis); test: Test B flooded paddy test, sedge, umbrella; conditions: Cyperus difformis; 250 g ai/ha, Flood; visually evaluated after 10 to 14 days; read-out: Plant response rating, Sedge, Umbrella (0 to 100 scale where 0 is no effect and 100 is complete control)
How it was run: (§4)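 Compound added straight to paddy water of pots flooded to 3 cm, with 2-leaf-stage plants; water level held for the test. Injury scored visually against untreated controls after 10 to 14 greenhouse days, 0 (none) to 100 (complete control).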

[12] = system: oat, wild (wild oat, Avena fatua); test: Test A preemergence, oat, wild; conditions: 0 to 100 scale, 10 days
Source text: as §1, §2

[13] = system: goosegrass (Eleusine indica); test: Test A postemergence, goosegrass; conditions: 10 days
Source text: as §1, §2

[14] = system: corn (Zea mays); test: Test A preemergence, corn; conditions: 0 to 100 scale, 10 days
Source text: as §1, §2

[15] = system: palmer amaranth (pigweed, palmer, Amaranthus palmeri); test: Test A preemergence, palmer amaranth; conditions: 0 to 100 scale, 10 days
Source text: as §1, §2

[16] = system: rice (Oryza sativa); test: Test B flooded paddy test, rice; conditions: Oryza sativa; 250 g ai/ha, Flood; visually evaluated after 10 to 14 days; read-out: Plant response rating, Rice (0 to 100 scale where 0 is no effect and 100 is complete control)
How it was run: as §4

[17] = 31 g ai/ha, postemergence, 0 to 100 scale (0 no effect, 100 complete control)
[18] = Postemergence, 125 g ai/ha, 0 to 100 scale

Row | SMILES | Plant response rating, Oat, Wild [1, 17] | Plant response rating, Oat, Wild [1, 18] | Corn plant response rating (crop injury, 0 = no effect, 100 = complete kill) at 31 g/ha ([2]; Postemergence, 0 to 100 scale) [%] | Corn plant response rating (crop injury, 0 = no effect, 100 = complete kill) at 125 g/ha ([2]; Postemergence, 0 to 100 scale) [%] | Plant response rating, Soybean ([3]; 31 g ai/ha) | Plant response rating, Soybean ([3]; 125 g ai/ha) | Plant response rating, Pigweed, Palmer [4, 17] | Plant response rating, Pigweed, Palmer [4, 18] | Plant response rating, Blackgrass ([5]; 31 g ai/ha) | Plant response rating, Blackgrass ([5]; 125 g ai/ha) | Plant response rating, Soybean [6, 17] | Plant response rating, Soybean [6, 18] | pest or weed control at 31 g/ha [7] [%] | pest or weed control at 125 g/ha [7] [%] | Plant response rating, Horseweed [8, 17] | Plant response rating, Horseweed [8, 18] | Plant response rating, Goosegrass ([9]; 31 g ai/ha) | Plant response rating, Goosegrass ([9]; 125 g ai/ha) | pest or weed control at 250 g/ha [11] [%] | plant injury at 250 g/ha [16] [%] | other results
1 | COC(=O)OCOc1c(Cl)nn(C)c(=O)c1-c1c2cc(C)ccc2cc2ccc(C)cc12 [Compound 8, [[3-chloro-5-(2,7-dimethyl-9-anthracenyl)-1,6-dihydro-1-methyl-6-oxo-4-pyridazinyl]oxy]methyl methyl carbonate] | 0 | 10 | 0 | 20 | 0 | 0 | 70 | 100 | 0 | 0 | 40 | 60 | 0 | 10 | 100 | 100 | 0 | 0 | 95 | 0 | Plant response rating, Wheat [10]: 0; Plant response rating, Oat, Wild ([12]; 31 g ai/ha): 0; Plant response rating, Oat, Wild ([12]; 125 g ai/ha): 0; Plant response rating, Goosegrass [13, 17]: 0; Plant response rating, Goosegrass [13, 18]: 0; Plant response rating, Corn ([14]; 31 g ai/ha): 0; Plant response rating, Corn ([14]; 125 g ai/ha): 60; Plant response rating, Pigweed, Palmer ([15]; 31 g ai/ha): 100; Plant response rating, Pigweed, Palmer ([15]; 125 g ai/ha): 100
2 | Cc1ccc2cc3ccc(C)cc3c(-c3c(OCOC(=O)C(C)(C)C)c(Cl)nn(C)c3=O)c2c1 [Compound 9, [[3-chloro-5-(2,7-dimethyl-9-anthracenyl)-1,6-dihydro-1-methyl-6-oxo-4-pyridazinyl]oxy]methyl 2,2-dimethylpropanoate] | 0 | 0 | 0 | 20 | 0 | 0 | 80 | 80 | 0 | 0 | 40 | 60 | 0 | 0 | 100 | 100 | 10 | 10 | 100 | 0 | Plant response rating, Wheat [10]: 0; Plant response rating, Oat, Wild ([12]; 31 g ai/ha): 0; Plant response rating, Oat, Wild ([12]; 125 g ai/ha): 0; Plant response rating, Goosegrass [13, 17]: 30; Plant response rating, Goosegrass [13, 18]: 30; Plant response rating, Corn ([14]; 31 g ai/ha): 0; Plant response rating, Corn ([14]; 125 g ai/ha): 0; Plant response rating, Pigweed, Palmer ([15]; 31 g ai/ha): 40; Plant response rating, Pigweed, Palmer ([15]; 125 g ai/ha): 100
3 | CC(=O)OCOc1c(Cl)nn(C)c(=O)c1-c1c2ccccc2cc2ccccc12 [Compound 10, 5-[(acetyloxy)methoxy]-4-(9-anthracenyl)-6-chloro-2-methyl-3(2H)-pyridazinone] |  |  | 10 | 20 |  |  |  |  |  |  |  |  | 0 | 10 |  |  |  |  | 95 | 0 | 
4 | CC(=O)OCOc1c(Cl)nn(C)c(=O)c1-c1c2ccccc2c(Cl)c2ccccc12 [Compound 11, 5-[(acetyloxy)methoxy]-6-chloro-4-(10-chloro-9-anthracenyl)-2-methyl-3(2H)-pyridazinone] |  |  | 0 | 10 |  |  |  |  |  |  |  |  | 0 | 30 |  |  |  |  | 95 | 0 | 
5 | CC(=O)OCOc1c(C)nn(C)c(=O)c1-c1c2cc(C)ccc2cc2ccc(F)cc12 [Compound 24, 5-[(acetyloxy)methoxy]-4-(2-fluoro-7-methyl-9-anthracenyl)-2,6-dimethyl-3(2H)-pyridazinone] |  |  |  | 20 |  |  |  |  |  |  |  |  | 50 | 80 |  |  |  |  | 80 | 50 | Corn plant response rating (crop injury, 0 = no effect, 100 = complete kill) at 31 g/ha ([2]; postemergence, 0 to 100 scale (0 no effect, 100 complete control)): 10%
